The values below come from patent publication US12303509B2, “Compounds for the treatment of BRAF-associated diseases and disorders” (Pfizer Inc., priority 2020, dated 2025).

Data set [1] has as its target full-length FLAG-tagged B-Raf(V600E) (Homo sapiens (Human), UniProt P15056, V600E). In words: BRAF V600E enzyme assay (TR-FRET competitive displacement). The data set is classed as binding. The essentials:
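TR-FRET tracer competition: compound (top dose 10 μM, 3-fold, 11 points) incubated 60 min at ambient temperature with FLAG-tagged full-length B-Raf(V600E) (5 nM), Eu anti-FLAG cryptate (0.5 nM) and tracer (50 nM), pH 7.4 HEPES/MgCl2 buffer. 665/615 ratio converted to percent of control; IC50 where fitted curve crosses 50 POC.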
In general terms: In TR-FRET formats the signal depends on donor and acceptor labels being close together.

Another data set relates to A375 cells. In words: Cellular phospho-ERK inhibition assay in A375 cells. The data set is classed as cell-based. To be noted: Homo sapiens, A-375, A375 cells (head prints A357), 2 hours treatment, read-out: A357 cell IC50. The essentials: (§1)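 In Cell Western detection of phospho-ERK1/2 (Thr202/Tyr204) over GAPDH after 2 h compound exposure (66 pM to 10 μM, 9 points, 0.25% DMSO) of A375 cells in DMEM or H1755 cells in RPMI, both with 10% FBS. Percent of control set by DMSO and 10 μM binimetinib; 4-parameter IC50.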

Another data set deals with H1755 cells. The data set is described as follows: Cellular phospho-ERK inhibition assay in H1755 cells. The data set is classed as cell-based. As to conditions: Homo sapiens, NCI-H1755, 2 hours treatment, read-out: H1755 Cell IC50. The essentials: as §1
A short description of data set [2]: MDR1 LLC-PK1 and BCRP MDCKII permeability assay: permeability coefficient (Papp). The data set is classed as in vitro ADME. The source says: (§2) Final organic concentration in the assay was 1%.
The target in a further data set is P-gp (MDR1) (Homo sapiens (Human), UniProt P08183). In words: MDR1 LLC-PK1 permeability assay: efflux ratio. It is filed as in vitro ADME. As to conditions: pig.
Description: as §2

A further data set addresses BCRP (Homo sapiens (Human), UniProt Q9UNQ0). The data set is described as follows: BCRP MDCKII permeability assay: efflux ratio. The data set is classed as in vitro ADME. As to conditions: dog.
Where [3] appears, read: averaged IC50, TR-FRET tracer displacement, 60 min.

The structures appear in SMILES notation. Where a name gives a salt, the structure may show the parent alone. Read-outs that look alike come from different tables or passages of the source.

Chain of BCRP (Q9UNQ0 whole entry): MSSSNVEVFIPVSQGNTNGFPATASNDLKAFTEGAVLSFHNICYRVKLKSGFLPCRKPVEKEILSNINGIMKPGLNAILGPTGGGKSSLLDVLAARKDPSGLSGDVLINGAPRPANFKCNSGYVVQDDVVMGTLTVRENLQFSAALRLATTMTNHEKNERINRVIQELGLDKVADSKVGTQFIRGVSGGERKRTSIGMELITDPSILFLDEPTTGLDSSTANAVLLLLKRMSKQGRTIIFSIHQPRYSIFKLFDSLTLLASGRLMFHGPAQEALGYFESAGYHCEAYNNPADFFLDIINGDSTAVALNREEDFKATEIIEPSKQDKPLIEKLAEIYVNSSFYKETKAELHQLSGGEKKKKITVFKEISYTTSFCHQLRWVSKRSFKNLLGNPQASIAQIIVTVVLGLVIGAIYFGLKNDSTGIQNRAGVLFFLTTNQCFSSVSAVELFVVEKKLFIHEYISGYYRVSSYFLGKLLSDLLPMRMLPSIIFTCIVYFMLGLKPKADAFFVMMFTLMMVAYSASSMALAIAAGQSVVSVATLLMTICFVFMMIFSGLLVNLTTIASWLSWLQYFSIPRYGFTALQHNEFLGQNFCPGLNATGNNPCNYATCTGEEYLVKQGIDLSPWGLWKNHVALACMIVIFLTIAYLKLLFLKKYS
Chain of full-length FLAG-tagged B-Raf(V600E) (P15056 whole entry V600E): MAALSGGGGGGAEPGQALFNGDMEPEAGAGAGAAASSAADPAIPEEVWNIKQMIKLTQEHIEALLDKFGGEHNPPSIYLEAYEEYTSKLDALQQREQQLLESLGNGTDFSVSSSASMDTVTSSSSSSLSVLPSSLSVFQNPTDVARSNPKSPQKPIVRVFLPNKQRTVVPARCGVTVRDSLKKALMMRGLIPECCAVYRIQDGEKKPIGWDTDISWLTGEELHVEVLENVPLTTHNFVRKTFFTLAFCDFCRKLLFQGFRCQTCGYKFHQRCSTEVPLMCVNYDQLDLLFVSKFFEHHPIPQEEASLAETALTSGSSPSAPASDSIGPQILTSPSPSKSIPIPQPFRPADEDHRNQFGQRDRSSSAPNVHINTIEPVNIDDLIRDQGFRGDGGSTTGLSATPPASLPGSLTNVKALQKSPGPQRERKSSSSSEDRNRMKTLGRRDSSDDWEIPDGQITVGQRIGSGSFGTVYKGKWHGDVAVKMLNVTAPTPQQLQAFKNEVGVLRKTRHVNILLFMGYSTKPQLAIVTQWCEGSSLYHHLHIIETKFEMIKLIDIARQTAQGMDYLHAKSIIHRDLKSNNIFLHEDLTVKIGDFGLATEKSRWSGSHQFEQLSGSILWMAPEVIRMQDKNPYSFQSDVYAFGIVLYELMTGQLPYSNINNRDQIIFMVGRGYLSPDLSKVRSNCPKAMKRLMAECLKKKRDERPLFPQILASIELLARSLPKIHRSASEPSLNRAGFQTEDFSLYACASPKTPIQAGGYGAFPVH
Chain of P-gp (MDR1) (P08183 whole entry, species assumed): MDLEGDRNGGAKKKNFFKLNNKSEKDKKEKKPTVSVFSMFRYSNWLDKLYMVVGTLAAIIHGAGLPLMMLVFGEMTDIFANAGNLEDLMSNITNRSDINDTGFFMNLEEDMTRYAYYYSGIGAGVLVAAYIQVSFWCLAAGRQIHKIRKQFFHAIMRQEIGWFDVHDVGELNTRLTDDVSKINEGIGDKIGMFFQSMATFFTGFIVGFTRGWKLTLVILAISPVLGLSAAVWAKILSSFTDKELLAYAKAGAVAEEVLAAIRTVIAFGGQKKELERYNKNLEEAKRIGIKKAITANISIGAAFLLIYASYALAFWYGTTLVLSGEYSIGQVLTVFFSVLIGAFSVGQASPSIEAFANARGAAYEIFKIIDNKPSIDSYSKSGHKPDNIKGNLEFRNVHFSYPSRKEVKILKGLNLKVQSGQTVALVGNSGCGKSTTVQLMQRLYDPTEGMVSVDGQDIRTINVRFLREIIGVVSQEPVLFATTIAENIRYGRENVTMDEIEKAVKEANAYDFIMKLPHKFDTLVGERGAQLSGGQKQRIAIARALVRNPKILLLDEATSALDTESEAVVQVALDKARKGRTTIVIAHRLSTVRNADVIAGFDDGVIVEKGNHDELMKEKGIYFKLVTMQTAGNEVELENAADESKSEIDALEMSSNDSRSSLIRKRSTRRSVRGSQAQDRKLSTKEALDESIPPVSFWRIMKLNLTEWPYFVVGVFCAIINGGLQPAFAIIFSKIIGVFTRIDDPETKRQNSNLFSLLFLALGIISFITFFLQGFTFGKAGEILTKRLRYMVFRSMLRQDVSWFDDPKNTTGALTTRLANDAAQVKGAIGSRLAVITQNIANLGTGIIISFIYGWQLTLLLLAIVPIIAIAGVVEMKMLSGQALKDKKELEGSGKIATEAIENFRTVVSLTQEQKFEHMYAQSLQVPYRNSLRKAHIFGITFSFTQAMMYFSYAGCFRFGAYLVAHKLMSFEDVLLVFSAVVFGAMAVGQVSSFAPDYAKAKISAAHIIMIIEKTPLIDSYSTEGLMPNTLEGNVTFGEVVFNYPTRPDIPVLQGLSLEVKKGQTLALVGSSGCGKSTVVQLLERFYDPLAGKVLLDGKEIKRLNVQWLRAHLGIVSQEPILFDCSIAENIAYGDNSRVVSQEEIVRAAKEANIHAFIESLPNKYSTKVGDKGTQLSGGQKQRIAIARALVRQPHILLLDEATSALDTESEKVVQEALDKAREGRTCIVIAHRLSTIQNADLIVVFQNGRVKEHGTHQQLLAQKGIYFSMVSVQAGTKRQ

A word on the IC50: it is the midpoint of a concentration-inhibition curve. The term Papp denotes the rate of passage across a membrane or cell layer, normalised by area and donor concentration. A low value points to poor permeation. What is called efflux ratio is a quotient of directional permeabilities that is used to spot active efflux. As for `Cn1cnc2ccc(Nc3c(F)c(F)cc(NS(=O)(=O)N4CC[C@@H](F)C4)c3Cl)c(F)c2c1=O` [Example 46, (R)-N-(2-chloro-4,5-difluoro-3-((5-fluoro-3-methyl-4-oxo-3,4-dihydroquinazolin-6-yl)amino)phenyl)-3-fluoropyrrolidine-1-sulfonamide trifluoroacetate], the results for the IC50 (in data set [1] (setting [3]); in the data set on A375 cells; in the data set on H1755 cells) were 1 nM, 2 nM and 103 nM, respectively. This molecule gave a Papp at 2 h, 1 µM in data set [2] of 30 ×10⁻⁶ cm/s. The figures for the efflux ratio at 2 h, 1 µM on P-gp (MDR1) and on BCRP were 2.8 and 6.3, respectively.

With `CO[C@@H]1CCN(S(=O)(=O)Nc2cc(F)c(F)c(Nc3ccc4ncn(C)c(=O)c4c3F)c2Cl)C1` [Example 47, (R)-N-(2-chloro-4,5-difluoro-3-((5-fluoro-3-methyl-4-oxo-3,4-dihydroquinazolin-6-yl)amino)phenyl)-3-methoxypyrrolidine-1-sulfonamide trifluoroacetate], the values for the IC50 (in data set [1] (setting [3]); in the data set with A375 cells; in the data set with H1755 cells) were 2 nM, 2 nM and 23 nM, respectively. In data set [2], this molecule showed an apparent permeability coefficient (Papp) at 2 h, 1 µM of 26 ×10⁻⁶ cm/s. Further, the efflux ratio at 2 h, 1 µM came to 3.6 at P-gp (MDR1) and 2.5 on BCRP.

Regarding `Cn1cnc2ccc(Oc3c(F)ccc(NS(=O)(=O)N4CC5CC4C5)c3Cl)c(F)c2c1=O` [Example 49, N-(2-chloro-4-fluoro-3-((5-fluoro-3-methyl-4-oxo-3,4-dihydroquinazolin-6-yl)oxy)phenyl)-2-azabicyclo[2.1.1]hexane-2-sulfonamide], the IC50 in data set [1] (setting [3]) was found to be 2 nM; in the data set with A375 cells, 3 nM; with H1755 cells it was 70 nM. Besides, the Papp at 2 h, 1 µM in data set [2] turned out to be 30 ×10⁻⁶ cm/s. For the same molecule, the results for the efflux ratio at 2 h, 1 µM on P-gp (MDR1) and at BCRP were 1.4 and 1, respectively.

Regarding `Cn1cnc2ccc(Nc3c(F)ccc(NS(=O)(=O)N4CCCC4)c3Cl)c(C#N)c2c1=O` [Example 50, N-(2-chloro-3-((5-cyano-3-methyl-4-oxo-3,4-dihydroquinazolin-6-yl)amino)-4-fluorophenyl)pyrrolidine-1-sulfonamide trifluoroacetate], the IC50 turned out to be 2 nM in data set [1] (setting [3]), 1 nM in the data set on A375 cells and 20 nM with H1755 cells. In data set [2], this molecule displayed a Papp at 2 h, 1 µM of 26 ×10⁻⁶ cm/s. The efflux ratio at 2 h, 1 µM at P-gp (MDR1) came to 5.3; on BCRP, 6.3.

On to `[2H]C([2H])([2H])O[C@@H]1CCN(S(=O)(=O)Nc2ccc(F)c(Nc3ccc4ncn(C)c(=O)c4c3Cl)c2Cl)C1` [Example 53, (R)-N-(2-chloro-3-((5-chloro-3-methyl-4-oxo-3,4-dihydroquinazolin-6-yl)amino)-4-fluorophenyl)-3-(methoxy-d3)pyrrolidine-1-sulfonamide trifluoroacetate], for which the 50% inhibitory concentration (IC50) came out at 7 nM in data set [1] (setting [3]), 6 nM with A375 cells and 25 nM in the data set on H1755 cells. The molecule also gave a Papp at 2 h, 1 µM in data set [2] of 30 ×10⁻⁶ cm/s. Also, the efflux ratio at 2 h, 1 µM at P-gp (MDR1) was 2; on BCRP, 1.8.

Regarding `[2H]C([2H])([2H])O[C@@H]1CCN(S(=O)(=O)Nc2ccc(F)c(Nc3ccc4ncn(C)c(=O)c4c3F)c2Cl)C1` [Example 54, (R)-N-(2-chloro-4-fluoro-3-((5-fluoro-3-methyl-4-oxo-3,4-dihydroquinazolin-6-yl)amino)phenyl)-3-(methoxy-d3)pyrrolidine-1-sulfonamide trifluoroacetate], the IC50 in data set [1] (setting [3]) was 17 nM; with A375 cells, 4 nM; in the data set with H1755 cells it was 33 nM. In data set [2], this molecule returned a Papp at 2 h, 1 µM of 31 ×10⁻⁶ cm/s. Moreover, the efflux ratio at 2 h, 1 µM came to 3.6 at P-gp (MDR1) and 3 at BCRP.

For `[2H]C([2H])([2H])O[C@@H]1CCN(S(=O)(=O)Nc2ccc(F)c(Nc3ccc4ncn(C)c(=O)c4c3C)c2Cl)C1` [Example 55, (R)-N-(2-chloro-3-((3,5-dimethyl-4-oxo-3,4-dihydroquinazolin-6-yl)amino)-4-fluorophenyl)-3-(methoxy-d3)pyrrolidine-1-sulfonamide trifluoroacetate], the values for the IC50 (in data set [1] (setting [3]); in the data set on A375 cells; with H1755 cells) were 45 nM, 27 nM and 124 nM, respectively. In data set [2], this molecule registered a Papp at 2 h, 1 µM of 33 ×10⁻⁶ cm/s. Moreover, the efflux ratio at 2 h, 1 µM turned out to be 1.5 at P-gp (MDR1) and 1 on BCRP.

Consider `Cc1c(Oc2c(F)ccc(NS(=O)(=O)N3CC[C@@H](OC(F)F)C3)c2Cl)ccc2ncn(C)c(=O)c12.O=C(O)C(F)(F)F` [Example 57, (R)-N-(2-chloro-3-((3,5-dimethyl-4-oxo-3,4-dihydroquinazolin-6-yl)oxy)-4-fluorophenyl)-3-(difluoromethoxy)pyrrolidine-1-sulfonamide trifluoroacetate], for which the figures for the IC50 (in data set [1]; in the data set with A375 cells; in the data set on H1755 cells) were 3 nM, 27 nM and 61 nM, respectively. The molecule also showed a Papp at 2 h, 1 µM in data set [2] of 25 ×10⁻⁶ cm/s. Further, the efflux ratio at 2 h, 1 µM at P-gp (MDR1) and on BCRP was 0.9 throughout.

Take `Cn1cnc2ccc(Nc3cc(Cl)cc(NS(=O)(=O)N4CC[C@@H](F)C4)c3F)c(F)c2c1=O` [Example 58, (R)-N-(5-chloro-2-fluoro-3-((5-fluoro-3-methyl-4-oxo-3,4-dihydroquinazolin-6-yl)amino)phenyl)-3-fluoropyrrolidine-1-sulfonamide trifluoroacetate]: the half-inhibitory concentration (IC50) in data set [1] (setting [3]) was 3 nM; in the data set with A375 cells, 6 nM; in the data set on H1755 cells it was 32 nM. In data set [2], this molecule yielded a Papp at 2 h, 1 µM of 27 ×10⁻⁶ cm/s. For the same molecule, the figures for the efflux ratio at 2 h, 1 µM at P-gp (MDR1) and on BCRP were 5.3 and 7.3, respectively.

Consider `Cn1cnc2ccc(Oc3c(F)ccc(NS(=O)(=O)N4C[C@@H](F)[C@@H](F)C4)c3Cl)c(Cl)c2c1=O` [Example 59, cis-N-(2-chloro-3-((5-chloro-3-methyl-4-oxo-3,4-dihydroquinazolin-6-yl)oxy)-4-fluorophenyl)-3,4-difluoropyrrolidine-1-sulfonamide], for which the IC50 in data set [1] was determined as 1 nM; with A375 cells it was 10 nM; with H1755 cells it was 60 nM. Besides, in data set [2], the Papp at 2 h, 1 µM was 31 ×10⁻⁶ cm/s. Moreover, the efflux ratio at 2 h, 1 µM turned out to be 4.9 on P-gp (MDR1) and 12.9 on BCRP.

As for `Cn1cnc2ccc(Oc3c(F)ccc(NS(=O)(=O)N4CC[C@@H](OC(F)F)C4)c3Cl)c(Cl)c2c1=O` [Example 60, (R)-N-(2-chloro-3-((5-chloro-3-methyl-4-oxo-3,4-dihydroquinazolin-6-yl)oxy)-4-fluorophenyl)-3-(difluoromethoxy)pyrrolidine-1-sulfonamide], the IC50 in data set [1] is 2 nM; with A375 cells, 7 nM; in the data set on H1755 cells it was 61 nM. This molecule also gave a Papp at 2 h, 1 µM in data set [2] of 18 ×10⁻⁶ cm/s. In addition, the efflux ratio at 2 h, 1 µM at P-gp (MDR1) was 3.1; on BCRP it was 1.6.

As to `Cn1cnc2ccc(Oc3c(F)ccc(NS(=O)(=O)N4CCC(F)(F)C4)c3Cl)c(Cl)c2c1=O` [Example 61, N-(2-chloro-3-((5-chloro-3-methyl-4-oxo-3,4-dihydroquinazolin-6-yl)oxy)-4-fluorophenyl)-3,3-difluoropyrrolidine-1-sulfonamide], the values for the IC50 (in data set [1]; with A375 cells; in the data set with H1755 cells) were 2 nM, 25 nM and 194 nM, respectively. In data set [2], this molecule yielded a Papp at 2 h, 1 µM of 29 ×10⁻⁶ cm/s. The results for the efflux ratio at 2 h, 1 µM at P-gp (MDR1) and at BCRP were 2.2 and 3.3, respectively.

On to `CC[C@@H]1CCN(S(=O)(=O)Nc2ccc(F)c(Nc3ccc4ncn(C)c(=O)c4c3F)c2Cl)C1` [Example 62, (R)-N-(2-chloro-4-fluoro-3-((5-fluoro-3-methyl-4-oxo-3,4-dihydroquinazolin-6-yl)amino)phenyl)-3-ethylpyrrolidine-1-sulfonamide trifluoroacetate], for which the IC50 came out at 13 nM in data set [1] (setting [3]), 31 nM in the data set with A375 cells and 185 nM in the data set with H1755 cells. This molecule also displayed a Papp at 2 h, 1 µM in data set [2] of 29 ×10⁻⁶ cm/s. In addition, the efflux ratio at 2 h, 1 µM amounted to 1.6 on P-gp (MDR1) and 1 on BCRP.

Regarding `Cn1cnc2ccc(Oc3c(F)ccc(NS(=O)(=O)N4CCC(F)(F)C4)c3Cl)c(F)c2c1=O` [Example 63, N-(2-chloro-4-fluoro-3-((5-fluoro-3-methyl-4-oxo-3,4-dihydroquinazolin-6-yl)oxy)phenyl)-3,3-difluoropyrrolidine-1-sulfonamide], the IC50 in data set [1] amounted to 1 nM; in the data set with A375 cells it was 7 nM; with H1755 cells, 84 nM. Further, the Papp at 2 h, 1 µM in data set [2] is 39 ×10⁻⁶ cm/s. For the same molecule, the efflux ratio at 2 h, 1 µM was found to be 1.7 at P-gp (MDR1) and 3.6 at BCRP.

For `Cn1cnc2ccc(Oc3c(F)ccc(NS(=O)(=O)N4CC5CC5C4)c3Cl)c(F)c2c1=O` (stereo not drawn) [Example 65, N-(2-chloro-4-fluoro-3-((5-fluoro-3-methyl-4-oxo-3,4-dihydroquinazolin-6-yl)oxy)phenyl)-3-azabicyclo[3.1.0]hexane-3-sulfonamide], the figures for the IC50 (in data set [1]; in the data set with A375 cells; with H1755 cells) were 2 nM, 13 nM and 127 nM, respectively. In data set [2], this molecule gave a Papp at 2 h, 1 µM of 28 ×10⁻⁶ cm/s. Moreover, the efflux ratio at 2 h, 1 µM is 1.3 on P-gp (MDR1) and 1 on BCRP.
